Experimental data taken from PMC5854716, “Synthesis, molecular docking, ctDNA interaction, DFT calculation and evaluation of antiproliferative and anti-Toxoplasma gondii activities of 2,4-diaminotriazine-thiazole derivatives” (Medicinal Chemistry Research, 2018).

Columns and labels:
[1] = test system: biphenotypic B myelomonocytic leukemia MV4-11 cells; test: In vitro antiproliferative assay (MTT), MV4-11; assay type: cell-based, human; conditions: mean ± SD; for IC50: Homo sapiens, MV4-11, 72 h exposure; for IC50 MV4-11: 72 h exposure
Protocol: Biphenotypic B myelomonocytic leukemia MV4-11, human lung carcinoma A549, human breast carcinoma MCF-7, and normal mouse fibroblast BALB/3T3 cells were obtained from American Type Culture Collection (Rockville, Maryland, USA). All the cell lines are being maintained at the Institute of Immunology and Experimental Therapy, Wroclaw, Poland. MV4-11 cells were cultured in RPMI 1640 medium (Gibco, UK) with 2 mM L-glutamine adjusted to contain 1.0 mM sodium pyruvate, and 10% fetal bovine serum (FBS) (all from Sigma-Aldrich, Germany). A549 cells were cultured in RPMI 1640+ Opti-MEM (1:1) (both from Gibco, UK), MCF-7 cells in Eagle medium (IIET, Wroclaw, Poland), BALB/3T3 in Dulbecco medium (IIET, Poland) supplemented with 2 mM L-glutamine and 1.0 mM sodium pyruvate, 10% fetal bovine serum (all from Sigma-Aldrich, Germany). The MCF-7 cell culture was supplemented with 0.8 mg/l of insulin (Sigma-Aldrich, Germany). All culture media were supplemented with 100 units/ml penicillin, and 100 µg/ml streptomycin (both from Polfa Tarchomin S.A., Poland). All cell lines were grown at 37 °C with 5% CO2 humidified atmosphere (Łączkowski et al. [2014], [2016a]).
Prior to usage, the compounds were dissolved in DMSO and culture medium (1: 9) to the concentration of 1 mg/ml, and subsequently diluted in culture medium to reach the required concentrations (0.1, 1, 10, and 100 µg/ml) (Łączkowski et al. [2014], [2016a]).
Twenty-four hours prior to the addition of the tested compounds, the cells counted using Burker hemocytometer were plated in 96-well plates (Sarstedt, Germany) at a density of 1 × 10^4 cells per well. The assay was performed after 72 h of exposure to varying concentrations of the tested agents. The in vitro cytotoxic effect of all agents was examined using the SRB assay for adherent cells (A549, MCF-7, and BALB/3T3) or MTT assay for leukemia cells (MV4-11) as described previously. The results were calculated as an inhibitory concentration 50 (IC50)—the concentration of tested agent which inhibits proliferation of 50% of the cancer cell population. Each compound in each concentration was tested in triplicate in a single experiment, which was repeated 3–7 times (Rubinstein et al. [1990]; Bramson et al. [1995]).
Twenty microliter of MTT solution (MTT: 3-(4,5-dimethylthiazol-2-yl)-2,5-diphenyltetrazolium bromide, stock solution: 5 mg/ml) was added to each well and incubated for 4 h. After the incubation time was complete, 80 µl of the lysis mixture was added to each well (lysis mixture: 225 ml dimethylformamide, 67.5 g sodium dodecyl sulfate and 275 ml of distilled water). The optical densities of the samples were read after 24 h on a Synergy H4 (BioTek Instruments USA) photometer microtiter plate reader at 570 nm (Sidoryk et al. [2012]). All of chemicals were obtained from Sigma-Aldrich, Germany.

[2] = Cell viability assay (MTT), VERO; assay type: cell-based, Cercopithecus aethiops; conditions: African green monkey (Cercopithecus aethiops), VERO kidney epithelial cells
Protocol: The epithelial cell line VERO (ATCC-Catalog No. CCL-81^TM), derived from the kidney of the African green monkey, Cercopithecus aethiops and fibroblast cell line L-929 (ATCC-Catalog No. CCL-1^TM), derived from Mus musculus (http://www.atcc.org) were grown in Iscoves’s Modified Dulbecco’s Medium (IMDM) supplemented with 10% (v/v) fetal bovine serum (FBS), plus 2 mM L-glutamine, 100 U/ml penicillin, 100.00 µg/ml streptomycin, 5 × 10^−5 M 2-mercaptoethanol and maintained at 37 °C in a 10% CO2 atmosphere. Subcultures were performed via enzymatic cell dissociation in 0.25% trypsin. After dissociation, the cells were placed in culture medium at 4 °C with 10% FBS to inhibit the action of trypsin. The isolated cells were centrifuged for 10 min at 1000×g at 4 °C, and the cells were grown in new bottles. This procedure was repeated when cells reached a confluence of ~90%. All commercial reactants and solvents were purchased from either Sigma-Aldrich Laborchemikalien GmbH (Dzitko et al. [2014]).
Suspensions of the compounds 4a–l were freshly prepared (5 mg/ml DMSO) before the cells were exposed, and diluted to appropriate concentrations; 0.9, 1.8, 3.9, 7.8, 15.6, 31.2, 62.5, and 125.00 μg/ml with the culture medium. Cells treated with 2.5% DMSO-solvent served as a control in each experiment.
The effects of tested compounds on the viability of mouse fibroblasts L929 and […] VERO cells were evaluated using the MTT assay. The MTT assay was used according to international standards: ISO 10993-5:2009 (Tests for in vitro cytotoxicity; http://www.iso.org/iso/catalogue_detail.htm? csnumber = 36406). L929 and VERO cells were plated into 96-well plates at a density of 1.0 × 10^4/100 μl/well in culture medium and allowed to attach for 24 h before treatment. Afterwards, culture medium in the plates was replaced by 100 μl compounds suspension at concentration of 0–125 μg/ml and the cells were exposed for 24 h. Then 1 mg/ml MTT (50 μl/well) was added to each well and incubated at 37 °C, 10 % CO2 for 2 h. Mitochondrial dehydrogenases of viable cells reduce the yellowish water-soluble MTT to water-insoluble formazan crystals, which were solubilized with dimethyl sulfoxide (DMSO). The cell culture medium was aspirated cautiously, after which 150 μl DMSO was added to each well and mixed thoroughly. Optical density (OD) was read on the ELISA reader (Multiskan EX, Labsystems; http://www.mtxlsi.com/multiskan_EX.htm) at 550 nm. The results were expressed as percentage viability compared with the treated 2.5% DMSO controls. All experiments were performed in triplicate.

SMILES | melting point [°C] | IC50 [1] [µg/mL] | IC50 MV4-11 [1] [µg/mL] | viability at 24 h, 0.9 µg/ml [2] [%] | viability at 24 h, 1.8 µg/ml [2] [%] | viability at 24 h, 3.9 µg/ml [2] [%] | viability at 24 h, 7.8 µg/ml [2] [%] | viability at 24 h, 15.6 µg/ml [2] [%] | viability at 24 h, 31.2 µg/ml [2] [%] | viability at 24 h, 62.5 µg/ml [2] [%] | viability at 24 h, 125 µg/ml [2] [%]
C/C(=N\Nc1nc(-c2ccc(F)cc2)cs1)c1ccc(Nc2nc(N)nc(N)n2)cc1 [Compound 4a, (E)-N^2-(4-(1-(2-(4-(4-fluorophenyl)-1,3-thiazol-2-yl)hydrazinylidene)ethyl)phenyl)-1,3,5-triazine-2,4,6-triamine] | 223 to 225 | 3.21 ± 0.454 | – | 90.5 | 97.6 | 100 | 95.9 | 103 | 107 | 105 | 100
C/C(=N\Nc1nc(-c2cc3ccccc3oc2=O)cs1)c1ccc(Nc2nc(N)nc(N)n2)cc1 [Compound 4f, (E)-3-(2-(2-(1-(4-(4,6-diamino-1,3,5-triazin-2-yloamino)phenyl)ethylidene)hydrazinyl)thiazol-4-yl)-2H-chromen-2-on] | – | – | 3.08 ± 0.851 | – | – | – | – | – | – | – | –
CC(=O)Nc1ccc(-c2csc(N/N=C(\C)c3ccc(Nc4nc(N)nc(N)n4)cc3)n2)cc1 [Compound 4g, (E)-N^2-(4-(2-(2-(1-(4-(4,6-diamino-1,3,5-triazin-2-yloamino)phenyl)ethylidene)hydraziny)thiazol-4-yl)phenyl)-acetamide] | – | – | 2.76 ± 0.521 | – | – | – | – | – | – | – | –
C/C(=N\Nc1nc(-c2ccc(Cl)c(Cl)c2)cs1)c1ccc(Nc2nc(N)nc(N)n2)cc1 [Compound 4i, (E)-N^2-(4-(1-(2-(4-(3,4-dichlorophenyl)-1,3-thiazol-2-yl)hydrazinylidene)ethyl)phenyl)-1,3,5-triazine-2,4,6-triamine] | – | 1.37 ± 0.186 | – | 97.5 | 93.7 | 93.9 | 92.6 | 97.3 | 112 | 111 | –
C/C(=N\Nc1nc(-c2ccc(NS(C)(=O)=O)cc2)cs1)c1ccc(Nc2nc(N)nc(N)n2)cc1 [Compound 4j, (E)-N-(4-(2-(2-(1-(4-(4,6-diamino-1,3,5-triazin-2-yloamino)phenyl)ethylidene)hydrazinyl)thiazol-4-yl)phenyl)-methanesulfonamide] | – | – | 1.73 ± 0.091 | – | – | – | – | – | – | – | –
C/C(=N\Nc1nc(-c2ccccc2)cs1)c1ccc(Nc2nc(N)nc(N)n2)cc1 [Compound 4k, (E)-N^2-(4-(1-(2-(4-phenyl-1,3-thiazol-2-yl)hydrazinylidene)ethyl)phenyl)-1,3,5-triazine-2,4,6-triamine] | > 300 | 2.3 ± 0.97 | – | 91.9 | 95.5 | 99.3 | 95.7 | 104 | 106 | 113 | 113

More lines, main results first:

melting point [°C] | IC50 [1] [µg/mL] | IC50 MV4-11 [1] [µg/mL] | SMILES | viability at 24 h, 0.9 µg/ml [2] [%] | viability at 24 h, 1.8 µg/ml [2] [%] | viability at 24 h, 3.9 µg/ml [2] [%] | viability at 24 h, 7.8 µg/ml [2] [%] | viability at 24 h, 15.6 µg/ml [2] [%] | viability at 24 h, 31.2 µg/ml [2] [%] | viability at 24 h, 62.5 µg/ml [2] [%] | viability at 24 h, 125 µg/ml [2] [%]
237 to 239 | 1.89 ± 0.45 | – | C/C(=N\Nc1nc(-c2ccc(Cl)cc2)cs1)c1ccc(Nc2nc(N)nc(N)n2)cc1 [Compound 4b, (E)-N^2-(4-(1-(2-(4-(4-chlorophenyl)-1,3-thiazol-2-yl)hydrazinylidene)ethyl)phenyl)-1,3,5-triazine-2,4,6-triamine] | 93.5 | 95.8 | 90.1 | 94.7 | 103 | 115 | 115 | 113
231 to 233 | 3.09 ± 0.726 | – | C/C(=N\Nc1nc(-c2ccc(C)cc2)cs1)c1ccc(Nc2nc(N)nc(N)n2)cc1 [Compound 4c, (E)-N^2-(4-(1-(2-(4-(4-tolyl)-1,3-thiazol-2-yl)hydrazinylidene)ethyl)phenyl)-1,3,5-triazine-2,4,6-triamine] | 92.4 | 102 | 99 | 101 | 99.6 | 102 | 112 | 109
226 to 230 | 2.14 ± 0.464 | – | C/C(=N\Nc1nc(-c2ccc(Br)cc2)cs1)c1ccc(Nc2nc(N)nc(N)n2)cc1 [Compound 4d, (E)-N^2-(4-(1-(2-(4-(4-bromophenyl)-1,3-thiazol-2-yl)hydrazinylidene)ethyl)phenyl)-1,3,5-triazine-2,4,6-triamine] | 99.9 | 94.4 | 90.1 | 86 | 104 | 114 | 100 | 112
248 to 251 | 1.13 ± 0.25 | – | C/C(=N\Nc1nc(-c2ccc(I)cc2)cs1)c1ccc(Nc2nc(N)nc(N)n2)cc1 [Compound 4e, (E)-N^2-(4-(1-(2-(4-(4-iodophenyl)-1,3-thiazol-2-yl)hydrazinylidene)ethyl)phenyl)-1,3,5-triazine-2,4,6-triamine] | 100 | 100 | 97 | 87.3 | 101 | 113 | 117 | 113
– | 3.01 ± 0.476 | – | C/C(=N\Nc1nc(-c2ccc([N+](=O)[O-])cc2)cs1)c1ccc(Nc2nc(N)nc(N)n2)cc1 [Compound 4h, (E)-N^2-(4-(1-(2-(4-(4-nitrophenyl)-1,3-thiazol-2-yl)hydrazinylidene)ethyl)phenyl)-1,3,5-triazine-2,4,6-triamine] | 104 | 99.4 | 106 | 109 | 110 | 109 | 109 | 104
